The source of these data is patent publication US10399966B2, “Compounds for treatment of trypanosomes and neurological pathogens and uses thereof” (The University of North Carolina at Chapel Hill, priority 2016, dated 2019).

Molecules are shown by their SMILES. Where two headings read alike, the source gives them in different places. Marks after values point to notes of the source that are not given here.

The nature of one series: in vitro. Particulars: human.
For another series, the system named is Trypanosoma cruzi. Put plainly: Efficacy against T. cruzi in vitro. The series is classed as cell-based. Particulars: Trypanosoma cruzi; for EC90: read-out: T.cruzi EC90.
The nature of series [1]: Metabolic stability in human liver microsomes. The class given is in vitro ADME. Particulars: for Human microsomes, percentage of compound remaining / half-life at 1.5 μM: Table 12; for Human microsomes, percentage of compound remaining: after 60 min (where t1/2 > 60 min); for half-life at 1.5 μM: 37° C., NADPH (1 mM), microsomes 0.5 mg/mL, test compounds 1.5 μM, read-out: Human microsomes t1/2. As for the experimental part: (§1) Metabolic stability was evaluated using liver microsomes derived from mouse and human sources. Microsomal incubations were carried out according to a protocol described previously (Wang et al., Antimicrob. Agents Chemother. 54:2507 (2010)) with modifications. Briefly, substrate stock solutions were prepared in DMSO and DMSO content was kept at 0.5% (v/v) in final incubations. Incubation mixtures ([…]), liver microsomes (0.5 mg/mL) from mouse (pool of 1000, CD-1 male mouse) or human (pool of 50, mixed gender) (XenoTech LLC, Lenexa, Kans.) in a phosphate buffer (100 mM, pH 7.4) containing 3.3 mM MgCl2. After a 5-minute pre-equilibration period at 37° C., reactions (in triplicate) were initiated by adding the NADPH cofactor (1 mM). For NADPH-independent reactions, the cofactor was replaced with water. Aliquots (10 μl) of the reaction mixtures were removed at 0, 15, 30, and 60 minutes and individually mixed with 200 μL of ice-cold acetonitrile containing internal standard. The mixtures were vortex-mixed, and precipitated protein was removed by centrifugation at 2,250×g for 15 min. The supernatant fractions were dried using a 96-well microplate evaporator (Apricot Designs Inc., Covina, Calif.) under N2 at 50° C. and reconstituted with 100 μL 50% methanol containing 0.1% trifluoroacetic acid before UPLC-MS/MS analysis. In vitro half-life (t1/2) was obtained by analyzing the substrate concentration vs. incubation time curve using the one-phase exponential decay model (GraphPad Prism® 5.0, San Diego, Calif.).
Background: Liver microsomes are vesicles of endoplasmic reticulum, rich in cytochrome P450 enzymes.

The nature of series [2]: Metabolic stability in mouse liver microsomes. The class given is in vitro ADME. As to conditions: for Mouse microsomes, percentage of compound remaining / half-life at 1.5 μM: Table 12; for Mouse microsomes, percentage of compound remaining: after 60 min (where t1/2 > 60 min); for half-life at 1.5 μM: 37° C., NADPH (1 mM), microsomes 0.5 mg/mL, test compounds 1.5 μM, read-out: Mouse microsomes t1/2. The method, then: as §1

The nature of series [3]: Mouse oral pharmacokinetics. Particulars: for percent of the Cmax remaining: mouse oral 50 mg/kg. The series is classed as in vivo. As for the experimental part: […] Experiments were performed with groups of three mice per compound. Plasma was separated and extracted with acetonitrile for measurements of compound concentrations by liquid chromatography/tandem mass spectrometry.

A further series deals with T. b. brucei. As to the kind of experiment: In vitro antitrypanosomal activity against T. brucei (growth inhibition). The class given is cell-based, Trypanosoma brucei. Particulars: Trypanosoma brucei; for EC90: read-out: T. brucei EC90. In outline:
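Dose-response EC50 against T. brucei parasites with 0.4% DMSO final, 48 h at 37 °C; parasite density quantified by ATP luminescence (CellTiter-Glo).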

For series [4], the system named is human lymphocytes CRL-8155. Put plainly: Cytotoxicity against CRL-8155 cells. Particulars: human lymphoblasts; for EC50: read-out: CRL-8155 EC50, concentration required to inhibit growth by 50%.
Description: (§2) The selectivity of each compound for the parasite over each of the two cell lines was calculated.
Series [5] is described as follows: Distribution between mouse plasma and brain (brain penetration, ip). The series is classed as in vivo. As to conditions: for [compound]Brain / [compound]Plasma: ± SEM of 3 mice (compound 3: 6 mice); for Kp at 1 h / concentration at 60 min / concentration at 1 h: mouse, 5 mg/kg; for Kp at 1 h: read-out: Average brain/plasma ratio. In outline:
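Mice (n=3) received a single 5 mg/kg ip dose in 7% Tween 80, 3% ethanol, 5% DMSO, 0.9% saline and were sacrificed 1 h post-dose. Plasma and acetonitrile brain homogenates analysed by LC/MS/MS; brain concentration corrected for 2.5% vasculature volume, assuming 1 g = 1 mL.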

The subject of another series is human hepatocytes HepG2. As to the kind of experiment: Cytotoxicity against HepG2 cells. Particulars: for EC50: Homo sapiens, HepG2, read-out: HepG2 EC50.
Series [6] is described as follows: Cytotoxicity against HepG2 cells. Particulars: human.
The next series deals with T. b. brucei TREU667. Put plainly: Mouse efficacy model of chronic T. brucei infection. The series is classed as in vivo. Particulars: single intraperitoneal dose 10 mg/kg on day 21. The method, then:
For chronic efficacy, experiments were done in compliance with the University of Washington IACUC approved protocol. According to published procedures, groups of 5 mice were infected with 1×10^4 T. b. brucei (strain TREU667) at day 0 to establish a chronic infection. Treatment began on day 21 post-infection, and mice received 50 mg/kg test compound orally b.i.d. for 10 d (total of 20 doses) in a 200 μL volume of a vehicle composed of Phosal 53 MCT (60%), PEG400 (30%) and EtOH (10%). A control group received vehicle with no compound and another control group received a single intraperitoneal dose of diminazene aceturate at 10 mg/kg in water on day 21. […] Post dosing, parasitemia was monitored via microscopic examination of tail blood slides until 180 days post-infection. Mice were removed from the experiment once parasites were detected in the blood.
In a model of the chronic phase of HAT, compound 1 was administered to five mice infected with T. b. brucei TREU667 at 50 mg/kg/po b.i.d.×10 days, beginning 21 days post-infection. […] Efficacy PK blood samples were collected from three of the five mice prior to dose 15, and at 1 h and 6 h post-dose. […] Compound 1 attained 5/5 cures as determined by the absence of detectable parasitemia in any of the treated mice through 180 days post-infection (FIG. 2). […]

Series [7] has as its system human lymphocytes CRL-8155.
Description: as §2
Setting [8] is: Table 10, read-out: T.cruzi EC50.
[9] abbreviates: both sexes, human, liver microsomes, pH 7.4.
The mark [10] stands for this setting: male, CD-1, mouse, liver microsomes, pH 7.4.
[11] abbreviates: Table 13, mice, single 50 mg/kg oral gavage, vehicle Tween 80 (7%), EtOH (3%), DMSO (5%) in 0.9% NaCl, ± SEM of 3 mice, read-out: Cmax.
The mark [12] stands for this setting: Table 8, read-out: T. brucei EC50.
The mark [13] stands for this setting: Table 11, read-out: T. b. brucei EC50.
Setting [14] is: Table 12, read-out: T. b. brucei EC50.
Setting [15] is: Table 9, read-out: T. brucei EC50.
[16] abbreviates: Table 8, groups of 3 mice (compound 3: ± SEM of 6 mice).
Where [17] appears, read: Table 14, mice, single ip dose 5 mg/kg, one hour post-dose.

Broadly, the melting point is the temperature, or range, at which the solid turns liquid. The term EC90 denotes the concentration at which the effect reaches the 90% level. In general, EC50 refers to the midpoint of the concentration-response curve. For orientation: Cmax means the peak of the concentration-time curve. Usually Tmax stands for the time at which the peak concentration occurs. `O=C(Nc1ccc2sc(-c3ccc(F)c(F)c3)nc2c1)N1CCC(F)C1` (racemic) [Compound 3, 2-(3,4-Difluorophenyl)-5-(3-fluoro-N-pyrrolidylamido)benzothiazole]: the melting point is 209 to 210 °C. In “in vitro”, the EC90 was greater than 50 µM. For the same molecule, in the series with Trypanosoma cruzi (Table 6, read-out: T. cruzi EC50), the EC50 is 0.0919 µM. In addition, the EC50 in the series with Trypanosoma cruzi (setting [8]) was 0.177 µM. Further, the EC90 in the series on Trypanosoma cruzi (Table 10) worked out at 0.525 µM. Besides, the “Human microsomes, percentage of compound remaining” value in [1] amounted to 99%. Besides, the half-life at 3 μM in [1] (both sexes, human, liver microsomes, pH 7.4, Table 5, read-out: Microsome t1/2 (min) Human) is greater than 60 min. For the same molecule, in series [1] (setting [9]), the half-life at 1.5 μM was greater than 1 h. The “Mouse microsomes, percentage of compound remaining” value in series [2] is given as 52%. Also, in series [2] (male, CD-1, mouse, liver microsomes, pH 7.4, Table 5, read-out: Microsome t1/2 (min) Mouse), the half-life at 3 μM was 60 min. Moreover, in series [2] (setting [10]), the half-life at 1.5 μM was greater than 1 h. The “Mouse oral PK Tlast” value in series [3] (Table 5) was found to be 480 min. Also, the “Mouse oral PK Average AUC” value in series [3] (Table 5, n = 3) was 3847 ± 466 (n = 3) min * μmol/L. Besides, the Cmax in series [3] (setting [11]) came out at 10 ± 0.65 µM. Also, in series [3] (mouse, plasma, po, 50 mg/kg, Table 5, n = 3, read-out: Mouse oral PK Average Cmax), the Cmax is 10 ± 1.1 µM. In series [3] (mouse, plasma, po, 50 mg/kg, Table 5, read-out: Mouse oral PK Tmax (converted)), the Tmax was 1 h. Also, in the series on T. b. brucei (Table 6, read-out: T. brucei EC50), the EC50 was found to be 0.0519 µM. Besides, the EC50 in the series with T. b. brucei (setting [12]) is 0.0519 µM. The EC50 in the series on T. b. brucei (setting [13]) came out at 0.0519 µM. In the series on T. b. brucei (setting [14]), the EC50 worked out at 0.0519 µM. In addition, the EC50 in the series on T. b. brucei (setting [15]) stood at 0.0519 µM. Further, the EC90 in the series on T. b. brucei (Table 9) came out at 0.0919 µM. For the same molecule, in [4], the concentration giving a half-maximal response (EC50) was greater than 50 µM. For the same molecule, in series [5] (setting [16]), the “Average [compound] brain” value is 5.48 ± 0.683^a μM and the “Average [compound] plasma” value is 3.26 ± 0.630^a μM. Besides, in series [5] (setting [17]), the “[compound]Brain” value is on record as 5.48 ± 0.683^b μM and the “[compound]Plasma” value was 3.26 ± 0.630^b μM. The Kp at 1 h in series [5] (in vivo, Table 5, mouse brain penetration (60 min), n = 3) is 1.52 ± 0.0416. In series [5] (in vivo, Table 5 r15, mouse brain penetration (60 min), n = 3), the concentration at 60 min worked out at 2.78 ± 0.652 µM. The concentration at 60 min in [5] (in vivo, Table 5 r17 (second line so headed), mouse brain penetration (60 min), n = 3) is 4.22 ± 0.974 µM. In series [5] (in vivo, Table 8, groups of 3 mice), the Kp at 1 h was 2.11 ± 0.669. The EC50 in the series with human hepatocytes HepG2 was greater than 50 µM. In [6], the EC90 was greater than 50 µM.
In the case of `O=C(Nc1ccc2sc(-c3ccc(F)c(F)c3)nc2c1)N1C[C@@H](F)[C@H](F)C1` [Compound 35, (3R,4R)-2-(3,4-Difluorophenyl)-5-(3,4-difluoro-N-pyrrolidylamido)benzothiazole], the melting point fell in the range of 217 to 218 °C. Also, in the series with Trypanosoma cruzi (setting [8]), the EC50 is 0.562 µM. Moreover, in the series with Trypanosoma cruzi (Table 10), the EC90 was found to be 0.652 µM. The “Human microsomes, percentage of compound remaining” value in series [1] is listed as 96%. Besides, the half-life at 1.5 μM in [1] (setting [9]) was greater than 1 h. Moreover, the “Mouse microsomes, percentage of compound remaining” value in series [2] is listed as 67%. Moreover, in series [2] (setting [10]), the half-life at 1.5 μM is greater than 1 h. For the same molecule, the “AUC0 min-∞” value in series [3] (Table 13, mice, single 50 mg/kg oral gavage, vehicle Tween 80 (7%), EtOH (3%), DMSO (5%) in 0.9% NaCl, ± SEM of 3 mice) was 13515 ± 224.6 µM·min. For the same molecule, the Cmax in series [3] (setting [11]) was 11 ± 0.58 µM. Moreover, the “percent of the Cmax remaining” value in series [3] (24 h time point) is 34%. The “percent of the Cmax remaining” value in [3] (32 h time point) was greater than 17%. Moreover, the EC50 with T. b. brucei (setting [12]) amounted to 0.114 µM. For the same molecule, the EC50 in the series on T. b. brucei (setting [13]) stood at 0.114 µM. Also, the EC50 in the series with T. b. brucei (setting [14]) turned out to be 0.114 µM. The EC50 in the series on T. b. brucei (setting [15]) came to 0.114 µM. The EC90 in the series on T. b. brucei (Table 9) is 0.747 µM. The EC50 in series [4] is 27.1 µM. The EC90 in series [4] (read-out: CRL-8155 EC90, concentration required to inhibit growth by 90%) is greater than 50 µM. Moreover, in series [5] (setting [17]), the Brain/plasma ratio came to 7.71 ± 1.63, the “[compound]Brain” value is 16.2 ± 2.88 µM and the “[compound]Plasma” value was 2.19 ± 0.424 µM. The Kp at 1 h in series [5] (brain and plasma, intraperitoneal, Table 8, groups of 3 mice) was 7.71 ± 1.63. Besides, the concentration at 1 h in series [5] (brain, intraperitoneal, Table 8, groups of 3 mice (compound 3: ± SEM of 6 mice), read-out: Average [compound] brain) turned out to be 16.2 ± 2.88 µM. Besides, the concentration at 1 h in [5] (plasma, intraperitoneal, Table 8, groups of 3 mice (compound 3: ± SEM of 6 mice), read-out: Average [compound] plasma) came out at 2.19 ± 0.424 µM. In addition, the EC50 in the series on human hepatocytes HepG2 was greater than 50 µM. In addition, the EC90 in the series with human hepatocytes HepG2 (read-out: HepG2 EC90, concentration required to inhibit growth by 90%, human hepatocytes) is greater than 50 µM.
On to `N=C(N)c1ccc(/N=N/Nc2ccc(C(=N)N)cc2)cc1` [diminazene aceturate, reference compound], for which the “parasitemia outcome (in words)” value in the series on T. b. brucei TREU667 is recorded as “temporary clearance of parasitemia, but subsequently relapsed”.
As for `CCN(CC)CCCC(C)Nc1c2ccc(Cl)cc2nc2ccc(OC)cc12` (stereo not drawn) [quinacrine, reference compound], the results for the EC90 (in series [7]; with human hepatocytes HepG2 (human)) were 9.94 µM and 18.2 µM, respectively. Besides, the EC50 with human hepatocytes HepG2 was 10.4 µM.
